experiment: Inhibition of cobalt chloride-induced HIF-1 activation expressed in mouse NIH3T3 cells after 8 hrs by luciferase reporter gene assay; assay type: cell-based; conditions: NIH3T3, 8 h

IC50 [µM] | Compound
> 20 | O=C(/C=C/c1ccccc1)c1ccc(F)cc1
> 20 | O=C(/C=C/c1ccccc1O)c1ccccc1
> 20 | COc1cc(O)c(C(=O)/C(C)=C/c2ccccc2)c(OC)c1
> 20 | Cc1ccc(C(=O)/C=C/c2ccccc2)cc1
9.9 | COc1cc(O)c(C(=O)/C=C/c2ccccc2C)c(OC)c1
2.2 | COc1cc(O)c(C(=O)/C=C/c2cccc(Br)c2)c(OC)c1
3.6 | COc1cc(O)c(C(=O)/C=C/c2cccc(C)c2)c(OC)c1
> 20 | COc1cc(O)c(C(=O)/C=C/c2ccc(F)cc2)c(OC)c1
> 20 | O=C(/C=C/c1ccccc1)c1ccc(F)c(F)c1
> 20 | O=C(/C=C/c1ccccc1)c1ccc(C(F)(F)F)cc1
12 | CCCOc1ccc(/C=C/C(=O)c2c(O)cc(OC)cc2OC)cc1
> 20 | COc1cc(O)c(C(=O)/C=C/c2ccc(Cl)cc2)c(OC)c1
> 20 | O=C(/C=C/c1ccc(O)cc1)c1ccccc1 [4-HYDROXYCHALCONE]
> 20 | O=C(/C=C/c1ccc(O)c(O)c1)c1ccc(O)cc1O [BUTEIN]
9.6 | COc1cc(/C=C/C(=O)CC(=O)/C=C/c2ccc(O)c(OC)c2)ccc1O [CURCUMIN]
11 | COc1ccc(/C=C/C(=O)c2c(O)cc(OC)cc2OC)cc1 [FLAVOKAWAIN A]
3.3 | COc1cc(O)c(C(=O)/C=C/c2ccccc2)c(OC)c1 [FLAVOKAWAIN B]
3.1 | COc1cc(O)c(C(=O)/C=C/c2ccc(O)cc2)c(OC)c1 [FLAVOKAWAIN C]
4.1 | CC(C)=CCc1c(O)cc(C(=O)[C@H]2[C@@H](c3c(O)ccc(C(=O)/C=C/c4ccc(O)cc4O)c3O)C=C(C)C[C@@H]2c2ccc(O)cc2O)cc1O [KUWANON J]
3.2 | CC(C)=CCc1c(O)cc(C(=O)[C@H]2[C@@H](c3c(O)ccc(C(=O)/C=C/c4ccc(O)cc4)c3O)C=C(C)C[C@@H]2c2ccc(O)cc2O)cc1O [KUWANON R]
8.3 | CC(C)=CCc1c(O)cc(C(=O)[C@H]2[C@@H](c3c(O)ccc(C(=O)/C=C/c4ccc(O)cc4)c3O)C=C(C)C[C@@H]2c2ccc(O)cc2)cc1O [KUWANON V]

Compound | IC50 [µM]
COc1cc(O)c(C(=O)/C=C/c2ccccc2Br)c(OC)c1 | 11.6
